Values quoted from earlier work in patent US7044945B2, “Prevention of regression in thermal ciliary muscle tendinoplasty” (priority 2001, dated 2006).

How the values were obtained:
[1] = in mammals

Structure (SMILES) | tensile strength of the wounds (healing wound; compared with controls) | thermal shrinkage temperature of individual collagen fibers from the wounds (healing wound; treated wounds compared to comparable controls) | solubility in water and alcohol | toxicity [1]
CCN=C=NCCCN(C)C.Cl [1-ethyl-1-3 (3-dimethylaminopropyl) carbodiimide hydrochloride] | sizable increase | increased | – | –
OCC(O)CO [glycerol] | – | – | completely soluble | very low toxicity
